Here are results for 1 molecule from US8815891B2, “Tricyclic derivative or pharmaceutically acceptable salts thereof, preparation method thereof, and pharmaceutical composition containing the same” (Je Il Pharmaceutical Co., Ltd., priority 2008, dated 2014).

Assay [1] has as its target PARP-1 enzyme (Homo sapiens (Human), UniProt P09874). The assay can be described thus: Poly(ADP-ribose)polymerase [PARP-1] enzyme inhibitory activity (Trevigen PARP Assay kit). Format: biochemical. Conditions: read-out: PARP-1 Inhibitory activity IC50. Summed up:
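On histone-coated plates, PARP-1 (0.12 unit/well) reacted with compound for 30 min at 25 °C in a 2× cocktail of 1.95 mM NAD+, 50 μM biotinylated NAD+ and activated DNA (Tris pH 8.0, 25 mM MgCl2). Biotin-ribosylated histone was detected with streptavidin-HRP and TACS-Sapphire substrate, stopped with HCl and read at 450 nm.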

Assay [2] has as its system MCF-7 Cell line. The assay can be described thus: Cell growth inhibition of cancer cell lines (SRB assay), MCF-7. It counts as cell-based. On the procedure:
The tests on cell growth inhibitory activity were performed with respect to A549 (US, ATCC), SK-OV-3 (Korea Research Institute of Chemical Technology; KRICT), HT-29 (US, ATCC), MCF-7 cell (US, ATCC), using Sulforhodamin-B <SRB> Assay (1989, US National Cancer Institute (NCI)) which was developed to measure the in vitro anti-cancer activity of the drug. […] The samples of the compounds of the Examples according to the present invention were used for the tests, and before the tests, the samples were dissolved in dimethylsulfoxide and diluted with the culture medium (RPMI 1640) to be used. The final concentration of the sample was varied in the range of 0.3˜100 μM. After the culture medium was removed from the 96 well plates, the diluted sample solution was added by 100 μl, and cultured in 37° C., 5% CO2 culture medium for 72 hours. The time zero (Tz) plates were collected at the time point of adding the sample. Upon completing the culture, the medium was removed from each well along with Tz plate, then cold 10% trichloroacetic acid (TCA) was added by 100 μl per well. The wells were left at 4° C. for 1 hour, so that the cells were fixed into the bottom of the plates. After the cells were fixed, the plates were rinsed with water five to six times to remove the remaining trichloroacetic acid solution, and moisture was completely dried at room temperature. The cells were dyed for 30 minutes by adding the dye solution in which 0.4% sulforhodamine-B was dissolved in 1% acetic acid solution, by 100 μl per dried wells. The above was rinsed again with 1% acetic acid solution five to six times to ensure that sulforhodamine-B which had not attached to the cells was removed. The plates were again dried at room temperature. 100 μl of 10 mM tris-buffer was then added to dissolve the dye, and the optical density (OD) at 520 nm was measured with the microplate reader. GI50 of the sample regarding cancer cell was calculated as explained below. Time zero (Tz), control value (C) and test value (T) were obtained, in which Tz corresponds to OD value of time at which the sample is applied and culture is started, C corresponds to OD value of the well which is cultured without treatment with the sample, and T corresponds to OD value of the well which is treated with the sample and then cultured. The degree of cell growth inhibition of the sample was measured using: If […] [Mathematical Formula 1]
Further, the ability of Examples 2, 42, 49, 52, 72, 74, 101 to increase growth inhibition effect of temozolomide and SN-38 at 2 μM was determined.
(In general: Sulforhodamine B stains cellular protein and so reports cell mass.)

Assay [3] deals with PARP-1 enzyme (Cricetulus griseus (Chinese hamster) (Cricetulus barabensis griseus), UniProt Q9R152). Put plainly: Intracellular PARP inhibitory activity (NAD(P)H released by MMS-treated CHO-K1 cells). It counts as cell-based.

The term IC50 denotes the midpoint of a concentration-inhibition curve. What is called GI50 is the concentration that inhibits growth by half. Higher therefore signals lower sensitivity of the cells.

Structures are written as SMILES. Counter-ions that a name gives are not always drawn.

Chain of PARP-1 enzyme (Cricetulus griseus (Chinese hamster) (Cricetulus barabensis griseus), UniProt Q9R152) (Q9R152 whole entry): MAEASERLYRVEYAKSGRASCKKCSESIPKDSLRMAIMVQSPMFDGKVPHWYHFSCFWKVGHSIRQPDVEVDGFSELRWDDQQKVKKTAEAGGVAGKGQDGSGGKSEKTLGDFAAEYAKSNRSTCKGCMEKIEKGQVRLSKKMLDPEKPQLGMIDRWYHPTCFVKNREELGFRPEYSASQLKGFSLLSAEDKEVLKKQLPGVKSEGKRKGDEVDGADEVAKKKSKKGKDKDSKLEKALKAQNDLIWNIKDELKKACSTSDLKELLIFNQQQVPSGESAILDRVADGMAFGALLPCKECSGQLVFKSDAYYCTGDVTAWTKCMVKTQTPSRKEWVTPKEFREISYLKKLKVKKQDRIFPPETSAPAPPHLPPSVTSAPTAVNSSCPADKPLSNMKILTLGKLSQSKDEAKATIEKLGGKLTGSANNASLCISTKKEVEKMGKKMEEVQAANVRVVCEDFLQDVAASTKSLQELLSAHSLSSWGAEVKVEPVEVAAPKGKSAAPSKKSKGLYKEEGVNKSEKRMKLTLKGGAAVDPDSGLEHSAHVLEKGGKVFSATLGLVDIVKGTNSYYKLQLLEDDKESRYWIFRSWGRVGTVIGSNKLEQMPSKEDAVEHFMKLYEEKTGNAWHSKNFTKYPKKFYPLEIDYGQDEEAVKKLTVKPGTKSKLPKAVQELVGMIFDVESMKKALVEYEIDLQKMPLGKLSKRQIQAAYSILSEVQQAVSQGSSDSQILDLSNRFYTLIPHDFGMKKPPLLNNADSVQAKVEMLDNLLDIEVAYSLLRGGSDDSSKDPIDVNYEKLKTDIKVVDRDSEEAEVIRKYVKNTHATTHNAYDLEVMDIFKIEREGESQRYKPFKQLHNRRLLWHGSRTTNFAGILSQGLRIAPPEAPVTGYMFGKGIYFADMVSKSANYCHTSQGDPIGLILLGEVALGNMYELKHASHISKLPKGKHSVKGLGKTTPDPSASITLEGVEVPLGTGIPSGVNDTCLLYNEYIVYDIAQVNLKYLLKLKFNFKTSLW
Chain of PARP-1 enzyme (Homo sapiens (Human), UniProt P09874) (P09874 whole entry): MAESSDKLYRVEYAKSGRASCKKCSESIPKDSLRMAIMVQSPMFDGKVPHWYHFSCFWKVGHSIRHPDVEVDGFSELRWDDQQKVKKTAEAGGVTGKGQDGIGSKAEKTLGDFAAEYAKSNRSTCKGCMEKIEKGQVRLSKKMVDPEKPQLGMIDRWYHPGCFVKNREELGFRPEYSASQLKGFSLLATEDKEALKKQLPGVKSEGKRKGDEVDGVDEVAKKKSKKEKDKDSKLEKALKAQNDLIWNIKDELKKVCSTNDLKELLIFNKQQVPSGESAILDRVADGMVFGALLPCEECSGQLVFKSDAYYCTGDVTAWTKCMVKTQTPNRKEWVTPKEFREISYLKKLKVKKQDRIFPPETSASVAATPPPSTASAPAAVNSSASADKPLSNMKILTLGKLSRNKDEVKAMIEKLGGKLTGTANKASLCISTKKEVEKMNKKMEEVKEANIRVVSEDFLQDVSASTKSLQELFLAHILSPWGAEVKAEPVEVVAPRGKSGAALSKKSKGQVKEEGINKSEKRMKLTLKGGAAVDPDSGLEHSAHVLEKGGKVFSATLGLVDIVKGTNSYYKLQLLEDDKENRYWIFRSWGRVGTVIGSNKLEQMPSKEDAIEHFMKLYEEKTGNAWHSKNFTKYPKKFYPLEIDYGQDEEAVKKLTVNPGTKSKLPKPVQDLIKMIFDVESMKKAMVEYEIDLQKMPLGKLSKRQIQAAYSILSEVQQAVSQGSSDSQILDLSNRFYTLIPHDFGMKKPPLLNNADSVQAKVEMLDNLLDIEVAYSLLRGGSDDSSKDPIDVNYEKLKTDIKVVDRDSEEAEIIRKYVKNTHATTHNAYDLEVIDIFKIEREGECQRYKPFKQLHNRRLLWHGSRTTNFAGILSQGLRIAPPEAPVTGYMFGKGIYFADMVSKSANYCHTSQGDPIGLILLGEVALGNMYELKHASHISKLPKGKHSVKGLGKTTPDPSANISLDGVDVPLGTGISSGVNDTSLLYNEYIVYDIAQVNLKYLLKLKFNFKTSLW

Take `COc1cc(CN2CCOCC2)cc2[nH]c(=O)c3c(c12)NCCC3` [Example 74, 10-Methoxy-8-(morpholinomethyl)-1,2,3,4-tetrahydrobenzo[h][1,6]naphthyridine-5(6H)-one dihydrochloride]: the IC50 in assay [1] is 0.23 µM. Further, in assay [2] (2 μM compound), the “SN-38 PF50” value is recorded as 3.0 and the “Temozolomide PF50” value is listed as 6.3. Also, in assay [2] (Homo sapiens, MCF7, 72 hours), growth was halved (GI50) at 45 µM. Also, the half-inhibitory concentration (IC50) in assay [3] was 1.48 µM.
